Results as given in patent publication US12643889B2, “Synthesis of novel EP4 antagonist and use in cancer and inflammation” (Wuhan Humanwell Innovative Drug Research And Development …, priority 2020, dated 2026).

Tests used:
[1] = Mouse pharmacokinetic assay; assay type: in vivo, male ICR mice; details: male, ICR, plasma
Experimental: (§1) In a mouse pharmacokinetic assay, male ICR mice (20 g to 25 g) were selected and fasted overnight. Three mice were selected and intragastrically administered with 5 mg/kg of the corresponding compound. The blood of the mice was collected before the administration and at 15 min, 30 min, 1 h, 2 h, 4 h, 8 h, 24 h after the administration. Another 3 mice were intravenously administered with 1 mg/kg of the corresponding compound, and the blood thereof was collected before the administration and at 15 min, 30 min, 1 h, 2 h, 4 h, 8 h, 24 h after the administration. The blood samples were centrifuged at 6800 g at 2° C. to 8° C. for 6 minutes, and plasma was collected and stored at −80° C. The plasma was taken at respective time point, mixed with 3-5 times the amount of acetonitrile containing internal standard, vortexed for 1 minute, centrifuged at 4° C. for 10 minutes at 13000 rpm, supernatant was added 3 times the amount of water, and the appropriate mixture was taken for LC-MS/MS analysis. The primary pharmacokinetic parameters were analyzed with a WinNonlin 7.0 software, with non-compartmental model.

[2] = biological target: T1, recombinant human EP4 receptor membrane protein (Homo sapiens, UniProt P35408); test: Radioligand binding assay for EP4 receptor ([3H]-PGE2); details: [3H]-PGE2 1.5 nM; membrane protein 20 μg/well
T1 construct: expressed in transfected cells; host or cells: membranes of 293 cells overexpressing human EP4 receptor
T1 sequence (P35408 whole entry): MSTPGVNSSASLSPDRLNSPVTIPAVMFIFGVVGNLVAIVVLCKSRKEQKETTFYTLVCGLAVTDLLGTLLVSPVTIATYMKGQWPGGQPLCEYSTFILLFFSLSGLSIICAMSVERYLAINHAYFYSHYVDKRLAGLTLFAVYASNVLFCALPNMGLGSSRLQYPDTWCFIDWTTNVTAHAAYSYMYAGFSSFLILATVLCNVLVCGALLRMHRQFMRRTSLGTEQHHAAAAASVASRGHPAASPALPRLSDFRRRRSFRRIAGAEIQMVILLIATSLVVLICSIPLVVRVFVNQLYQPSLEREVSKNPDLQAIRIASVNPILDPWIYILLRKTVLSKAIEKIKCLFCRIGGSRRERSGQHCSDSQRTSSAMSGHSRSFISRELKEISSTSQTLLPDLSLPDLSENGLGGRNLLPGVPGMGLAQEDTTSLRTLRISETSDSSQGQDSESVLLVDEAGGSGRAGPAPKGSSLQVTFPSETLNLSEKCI
Experimental: The compounds to be tested and PGE2 were formulated as 10 mM stocks in a DMSO solvent, and then 8 concentration points of 4× working solution were serially diluted using a buffer (50 mM HBSS, 0.1% BSA, 500 mM NaCl). […] Unifilter-96 GF/C filter plate (Perkin Elmer) was soaked with 0.5% BSA, 50 μL per well, for at least 30 min at room temperature. After binding was complete, the reaction mixture was harvested through a GF/C plate using a Perkin Elmer Filtermate Harvester, followed by washing the filter plate and drying the filter plate for 1 hour at 50° C. After drying, the bottom of the filter plate wells was sealed using a Perkin Elmer Unifilter-96 sealing tape, and 50 μL of MicroScint™-20 cocktail (Perkin Elmer) was added to seal the top of the filter plate. The ^3H counts captured on the filter were read using a Perkin Elmer MicroBeta2 Reader.
The IC50 and Ki values of the compounds determined by the radioligand binding assay for EP4 receptor were calculated based on the inhibition rate of the different concentrations of the compounds.

human EP4 receptor [3] = biological target: T2, human EP4 receptor (Homo sapiens, UniProt P35408); test: Assay for EP4 antagonistic effect (cAMP, PGE2-stimulated CHO stable cell line)
T2 sequence (P35408 whole entry): as above
Experimental: After trypsinization, cells were resuspended in a buffer (1×HBSS, 0.1% BSA, 20 mM HEPES, and 500 μM IBMX) and 8000 cells were seeded per well in 384-well plates in a seeding volume of 15 μL. A working solution the compound with a 8× concentration was prepared with an experimental buffer, and then 2.5 μL of the working solution of the compound with 8× concentration was added to the 384-well plate, respectively, and incubated at 37° C. for 30 min. An agonist PGE2 working solution with 8× concentration of (4 nM) was prepared with the experimental buffer and 2.5 μL per well was added to the 384-well plate (the final PGE2 concentration was 0.5 nM) and incubated at 37° C. for 30 min. After the reaction was completed, the amount of cAMP in the cells was quantified according to the method in the instructions of the cAMP test kit (Perkin Elmer, Cat #TRF0263). The antagonistic effects (IC50 value) were calculated for the test compounds.

human EP4 receptor [4] = biological target: T2, human EP4 receptor; test: Assay of calcium current inhibition on EP4 receptor (FLIPR, 293 cells); assay type: cell-based; design: expressed in transfected cells; host or cells: 293 cells; details: 293 cells overexpressing human EP4; PGE2 at EC80; FLIPR
Experimental: The cells were rapidly thawed in a 37° C. water bath, centrifuged, resuspended, and counted. The cell suspensions were seeded at 20 μL/well in two 384-well plates (20,000 cells/well) and placed in an incubator (a 37° C., 5% CO2) overnight. Preparation of a 2× Fluo-4 Direct™ (Invitrogen, Cat #F10471) loading buffer: 77 mg of probenecid was added to 1 mL of a FLIPR buffer, with a concentration of 250 mM. 10 mL of FLIPR buffer and 0.2 mL of probenecid (250 mM) were added to each tube of Fluo-4 Direct™ crystals (F10471).
One of the cell plates was taken out of the incubator and the medium was removed. 20 μL of an assay buffer and 2× Fluo-4 Direct™ non-wash loading buffer were added to the 384-well cell culture plate to a final volume of 40 μL, and then the culture plate was incubated in an incubator (a 37° C., 5% CO2) for 50 minutes, and then at room temperature for 10 minutes, and then the plate was placed in the FLIPR. 10 μL of the buffer was transferred to the cell plate and the fluorescence signal was read. The agonist PGE2 was formulated as a 10 mM stock in a DMSO solvent and 10 concentration points of the 6× working solution were serially diluted using the buffer. 10 μL of the agonist PGE2 was transferred to the cell plate, the fluorescence signal was read to calculate EC80 value.
The agonist PGE2 was prepared at 6× EC80 concentration and the compound to be tested was formulated as a 10 mM stock solution in the DMSO solvent and 10 concentration points of the 6× compound working solution was serially diluted using the buffer.
Another cell plate was taken to remove media and 20 μL of the assay buffer and 2× Fluo-4 Direct™ non-wash loading buffer were added; the cell plate was incubated in a 37° C., 5% CO2 incubator for 50 minutes and room temperature for 10 minutes and then placed in the FLIPR. 10 μL of the compound working solution, DMSO, and the EP4 full antagonist were transferred to the cell plate and the fluorescence signal was read. […] Inhibition (%)=100−(test group−EP4 full antagonist group)/(DMSO group−EP4 full antagonist group)*100
Compound's IC50 value of EP4 calcium current inhibition was calculated based on the inhibition rate at different concentrations of the compound.

[5] = test system: CT-26 murine colon cancer tumor model; test: Anti-tumor effect in CT-26 murine colon cancer tumor model in combination with radiation therapy; assay type: in vivo, mouse; details: 150 mg/kg intragastric once daily in combination with radiotherapy (3Gry, once on day 1); day 23; tumor weight
Experimental: In this assay, the anti-tumor effects of the control compound and the compounds prepared in Examples 1 to 43, in combination with radiation therapy, were tested in a CT-26 murine colon cancer tumor model.
After one week of adaptive feeding of mice, CT-26 cells in a log phase were resuspended in PBS, 5×10^5 CT-26 cells were inoculated subcutaneously at the right flank at 100 μL per mouse, and tumor growth was observed regularly. When the tumor grew to an average volume of 60 to 80 mm^3, the mice carrying the tumor were randomly divided into 5 groups based on the tumor volume size, each group containing 10 mice of 10. These group were a group of Control compound (150 mg/kg) in combination with radiotherapy (3Gry), a group of Compound I-2 (150 mg/kg) in combination with radiotherapy, a group of Compound I-5 (150 mg/kg) in combination with radiotherapy, a group of radiotherapy (3Gry) alone, and a group of vehicle control. The mice were intragastrically administered with the corresponding compound once daily, for 23 days in total; radiation therapy was performed for one-time on the first day of the administration. Tumor volumes and mouse body weights were measured twice a week, and tumor weights were weighed at the end of the experiment. Efficacy evaluations were performed based on relative tumor inhibition (TGI), safety evaluations were performed based on changes in animal body weight and death. Tumor volume and relative tumor inhibition were calculated as follows:
Tumor volume (TV)=½×a×b^2, where a and b are the length and width of the tumor measurement, respectively.
Relative tumor inhibition rate TGI (%)=(TWc−TWt/TWc)×100%, where TWc is the mean tumor weight of the vehicle control group and TW is the mean tumor weight of the treatment group.

[6] = Canine pharmacokinetic assay; assay type: in vivo, male Beagle dogs; details: male, Beagle, dog, plasma, canine
Experimental: as §1
In a canine pharmacokinetic assay, male Beagle dogs (8 kg to 10 Kg) were selected and fasted overnight. Three Beagle dogs were taken and intragastrically administered with 3 mg/kg of the corresponding compound. Another 3 Beagle dogs were intravenously administered with 1 mg/kg of the corresponding compound. The following operations were the same as the mouse pharmacokinetic assay.

[7] = Rat pharmacokinetic assay; assay type: in vivo, male SD rats; details: male, SD, plasma, rat
Experimental: as §1
In a rat pharmacokinetic assay, male SD rats (180 g to 240 g) were selected and fasted overnight. Three rats were intragastrically administered with 5 mg/kg of the corresponding compound. Another 3 rats were intravenously administered with 1 mg/kg of the corresponding compound. The following operations were the same as the mouse pharmacokinetic assay.

[8] = oral gavage administration 5 mg/kg
[9] = intravenous administration 1 mg/kg
[10] = intravenous administration 1 mg/kg, read-out: Vz
[11] = oral gavage administration 3 mg/kg

| AUC(0-t) [1, 8] [ng·h/mL] | Cmax [1, 8] [ng/mL] | Tmax [1, 8] [h] | half-life [1, 8] [h] | IC50 [2] [nM] | Ki [2] [nM] | IC50 (human EP4 receptor [3]) [nM] | IC50 (human EP4 receptor [4]) [nM] | SMILES | relative tumor inhibition rate TGI (%) [5] [%] | AUC(0-t) [6, 11] [ng·h/mL] | Cmax [6, 11] [ng/mL] | Tmax [6, 11] [h] | half-life [6, 11] [h] | also measured |
| --- | --- | --- | --- | --- | --- | --- | --- | --- | --- | --- | --- | --- | --- | --- |
| 4440 | 1280 | 0.42 | 7.22 | 11 | 5.8 | 8.2 | 8 | C[C@H](NC(=O)c1c(C(F)F)nn(C)c1Oc1cccc(CC(F)(F)F)c1)c1ccc(C(=O)O)cc1 [Compound I-6, (S)-4-(1-(3-(difluoromethyl)-1-methyl-5-(3-(2,2,2-trifluoroethyl)phenoxy)-1H-pyrazole-4-carboxamido)ethyl)benzoic Acid] | – | – | – | – | – | – |
| 2140 | 1110 | 0.33 | 4.33 | 16 | 8.9 | 3.7 | 15 | CCc1cccc(Oc2c(C(=O)N[C@@H](C)c3ccc(C(=O)O)cc3)c(C(F)F)nn2C)c1 [Compound I-1, (S)-4-(1-(3-(difluoromethyl)-5-(3-ethylphenoxy)-1-methyl-1H-pyrazole-4-carboxamido)ethyl)benzoic Acid] | – | – | – | – | – | – |
| 3060 | 1040 | 0.33 | 7.12 | 28 | 15 | 6.6 | 6 | C[C@H](NC(=O)c1c(C(F)F)nn(C)c1Sc1cccc(C(F)(F)F)c1)c1ccc(C(=O)O)cc1 [Compound I-35, (S)-4-(1-(3-(difluoromethyl)-1-methyl-5-((3-(trifluoromethyl)phenyl)thio)-1H-pyrazole-4-carboxamido)ethyl)benzoic Acid] | – | – | – | – | – | – |
| 2440 | 570 | 0.33 | 23.2 | 13 | 7.3 | 8.6 | 15 | C[C@H](NC(=O)c1c(C(F)F)nn(C)c1Oc1csc(C(F)(F)F)c1)c1ccc(C(=O)O)cc1 [Compound I-42, (S)-4-(1-(3-(difluoromethyl)-1-methyl-5-((5-(trifluoromethyl)thiophen-3-yl)oxy)-1H-pyrazole-4-carboxamido)ethyl)benzoic Acid] | – | 7190 | 4850 | 0.25 | 8.35 | – |
| 2140 | 1840 | 0.33 | 15.7 | 5.5 | 3 | 1.9 | 7.4 | CCc1cc(Oc2c(C(=O)N[C@@H](C)c3ccc(C(=O)O)cc3)c(C(F)F)nn2C)ccc1F [Compound I-2, (S)-4-(1-(3-(difluoromethyl)-5-(3-ethyl-4-fluorophenoxy)-1-methyl-1H-pyrazole-4-carboxamido)ethyl)benzoic Acid] | 63 | – | – | – | – | – |

| SMILES | AUC(0-t) [1, 8] [ng·h/mL] | Cmax [1, 8] [ng/mL] | Tmax [1, 8] [h] | half-life [1, 8] [h] | IC50 [2] [nM] | Ki [2] [nM] | IC50 (human EP4 receptor [3]) [nM] | IC50 (human EP4 receptor [4]) [nM] | relative tumor inhibition rate TGI (%) [5] [%] | AUC(0-t) [6, 11] [ng·h/mL] | Cmax [6, 11] [ng/mL] | Tmax [6, 11] [h] | half-life [6, 11] [h] | also measured |
| --- | --- | --- | --- | --- | --- | --- | --- | --- | --- | --- | --- | --- | --- | --- |
| C[C@H](NC(=O)c1c(C(F)F)nn(C)c1Oc1cccc(C(F)(F)F)c1)c1ccc(C(=O)O)cc1 [Control Compound, reference compound] | 1770 | 792 | 0.25 | 30.9 | – | – | – | – | 54 | 6800 | 1360 | 1 | 18.6 | AUC(0-t) [1, 9]: 974 ng·h/mL; clearance [1, 9]: 14.7 mL/min/kg; half-life [1, 9]: 6.64 h; Vd [1, 10]: 8.38 L/kg; AUC(0-t) [6, 9]: 3730 ng·h/mL; clearance [6, 9]: 4 mL/min/kg; half-life [6, 9]: 9.36 h; Vd [6, 10]: 3.21 L/kg; AUC(0-t) [7, 9]: 1420 ng·h/mL; clearance [7, 9]: 10.2 mL/min/kg; half-life [7, 9]: 10.9 h; Vd [7, 10]: 9.55 L/kg; AUC(0-t) [7, 8]: 6850 ng·h/mL; Cmax [7, 8]: 1100 ng/mL; Tmax [7, 8]: 0.5 h; half-life [7, 8]: 12.7 h |
